According to ChEMBL document CHEMBL1159223, “4-Dehydroecdysterone, a new ecdysteroid from the zoanthid Parazoanthus sp” (J Nat Prod, 1995):
The source made the active and inactive calls. The calls are words filed in the database; no cut-off is given here.

Tested on: Candida albicans
Assay: Antifungal activity against Candida albicans
Type: functional, organism-based

Row | SMILES | Activity
1 | CC(C)(O)CC[C@@H](O)[C@](C)(O)[C@H]1CC[C@@]2(O)C3=CC(=O)[C@@H]4C[C@@H](O)[C@@H](O)C[C@]4(C)[C@H]3CC[C@]12C | inactive
2 | CC(C)(O)CC[C@H](O)[C@](C)(O)[C@H]1CC[C@@]2(O)C3=CC(=O)C4=C[C@@H](O)[C@@H](O)C[C@]4(C)[C@H]3CC[C@]12C | inactive
3 | CC(C)CC[C@H](O)[C@](C)(O)[C@H]1CC[C@@]2(O)C3=CC(=O)[C@@H]4C[C@@H](O)[C@@H](O)C[C@]4(C)[C@H]3[C@H](O)C[C@]12C | inactive
4 | CNc1nc2c(C)ccc3nc(N(C)C)[nH]c3c-2n1 | inactive
